Values joined by “and” are separate entries in the source; they are usually repeats but may differ in a detail not shown here. Identical values can stand only once. Inconclusive results and toxic doses are left out.
Tested on: P388 leukemia ip, CD2F1 mice, survival T/C
Test: NCI In Vivo Anticancer Drug Screen. Data for tumor model P388 Leukemia (intraperitoneal) in CD2F1 (CDF1) mice
Conditions: endpoint: median survival time, higher = longer survival
In short: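 Mice carrying the transplanted tumor received test compound or vehicle. Survival was recorded in each group, and the value is the treated-group measurement divided by that of the vehicle-treated control group.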

[1] = dose: 25.0 mg/kg/injection, schedule: Q01DX005 (ip), vehicle: Klucel (hydroxypropylcellulose) (HPC)
[2] = dose: 50.0 mg/kg/injection, schedule: Q01DX005 (ip), vehicle: Klucel (hydroxypropylcellulose) (HPC)
[3] = dose: 100.0 mg/kg/injection, schedule: Q01DX005 (ip), vehicle: Klucel (hydroxypropylcellulose) (HPC)
[4] = dose: 50.0 mg/kg/injection, schedule: Q01DX009 (ip), vehicle: saline with Tween-80
[5] = dose: 100.0 mg/kg/injection, schedule: Q01DX009 (ip), vehicle: saline with Tween-80
[6] = dose: 200.0 mg/kg/injection, schedule: Q01DX009 (ip), vehicle: saline with Tween-80
[7] = dose: 400.0 mg/kg/injection, schedule: Q01DX009 (ip), vehicle: saline with Tween-80
[8] = dose: 100.0 mg/kg/injection, schedule: Q01DX009 (ip), vehicle: saline
[9] = dose: 200.0 mg/kg/injection, schedule: Q01DX009 (ip), vehicle: saline
[10] = dose: 25.0 mg/kg/injection, schedule: Q01DX005 (ip), vehicle: saline with Tween-80
[11] = dose: 50.0 mg/kg/injection, schedule: Q01DX005 (ip), vehicle: saline with Tween-80
[12] = dose: 100.0 mg/kg/injection, schedule: Q01DX005 (ip), vehicle: saline with Tween-80
[13] = dose: 12.5 mg/kg/injection, schedule: Q01DX005 (ip), vehicle: Klucel (hydroxypropylcellulose) (HPC)
[14] = dose: 200.0 mg/kg/injection, schedule: Q01DX005 (ip), vehicle: Klucel (hydroxypropylcellulose) (HPC)
[15] = dose: 50.0 mg/kg/injection, schedule: Q01DX009 (ip), vehicle: saline

## COc1ccc2c(c1)CCC(Cc1ccc(Cl)cc1)C2c1ccc(OCCN2CCCC2)cc1 (stereo not given)
dose: 6.25 mg/kg/injection, schedule: Q01DX005 (ip), vehicle: suspension in saline
  T/C: 100 % of control
dose: 12.5 mg/kg/injection, schedule: Q01DX005 (ip), vehicle: suspension in saline
  T/C: 98 % of control
dose: 25.0 mg/kg/injection, schedule: Q01DX005 (ip), vehicle: suspension in saline
  T/C: 98 % of control
dose: 50.0 mg/kg/injection, schedule: Q01DX005 (ip), vehicle: suspension in saline
  T/C: 100 % of control

## CCN(CC)CCNc1c(C)ccc2cccnc12
dose: 12.5 mg/kg/injection, schedule: Q01DX005 (ip), vehicle: saline
  T/C: 102 % of control
dose: 25.0 mg/kg/injection, schedule: Q01DX005 (ip), vehicle: saline
  T/C: 93 % of control
dose: 50.0 mg/kg/injection, schedule: Q01DX005 (ip), vehicle: saline
  T/C: 100 % of control

## CC1(C)COC2(c3ccccc3)N(c3ccccc3)C(=O)ON12 (stereo not given)
dose: 60.0 mg/kg/injection, schedule: Q01DX001 (ip), vehicle: Klucel (hydroxypropylcellulose) (HPC)
  T/C: 100 % of control
dose: 120.0 mg/kg/injection, schedule: Q01DX001 (ip), vehicle: Klucel (hydroxypropylcellulose) (HPC)
  T/C: 100 % of control
dose: 240.0 mg/kg/injection, schedule: Q01DX001 (ip), vehicle: Klucel (hydroxypropylcellulose) (HPC)
  T/C: 103 % of control

## COC(=O)c1nc(SC)[nH]c1CC#N
dose: 100.0 mg/kg/injection, schedule: Q04DX002 (ip), vehicle: saline with Tween-80
  T/C: 108 % of control
dose: 200.0 mg/kg/injection, schedule: Q04DX002 (ip), vehicle: saline with Tween-80
  T/C: 98 % of control
dose: 400.0 mg/kg/injection, schedule: Q04DX002 (ip), vehicle: saline with Tween-80
  T/C: 99 % of control

## CCCn1c(C)nc2c(N)cc(C)cc21
[1]
  T/C: 101 % of control
[2]
  T/C: 94 % of control
[3]
  T/C: 97 % of control

## Clc1ccc2noc(-c3ccccc3)c2c1
[4]
  T/C: 94 % of control
[5]
  T/C: 91 % of control
[6]
  T/C: 98 % of control
[7]
  T/C: 94 % of control

## CCOCCC(O)CC (stereo not given)
[8]
  T/C: 90 % of control
dose: 100.0 mg/kg/injection, schedule: Q04DX003 (ip), vehicle: saline
  T/C: 122 % of control
[9]
  T/C: 95 % of control
dose: 200.0 mg/kg/injection, schedule: Q04DX003 (ip), vehicle: saline
  T/C: 104 % of control
dose: 400.0 mg/kg/injection, schedule: Q01DX009 (ip), vehicle: saline
  T/C: 104 % of control

## CN(C)CCC(=O)C(=C/C=C/c1ccccc1)C(=O)CCN(C)C
[10]
  T/C: 100 % of control
[11]
  T/C: 121 % of control
[12]
  T/C: 123 % of control

## COc1ccc(Br)c(C(=O)O)c1OS(=O)(=O)c1ccc(C)cc1
dose: 25.0 mg/kg/injection, schedule: Q01DX009 (ip), vehicle: other
  T/C: 106 % of control
dose: 50.0 mg/kg/injection, schedule: Q01DX009 (ip), vehicle: other
  T/C: 105 % of control
dose: 100.0 mg/kg/injection, schedule: Q01DX009 (ip), vehicle: other
  T/C: 100 % of control
dose: 200.0 mg/kg/injection, schedule: Q01DX009 (ip), vehicle: other
  T/C: 105 % of control
dose: 400.0 mg/kg/injection, schedule: Q01DX009 (ip), vehicle: other
  T/C: 108 % of control

## CC(=O)c1ccc(N=C2c3ccccc3CN2c2ccc(C(C)=O)cc2)cc1
[11]
  T/C: 88 % of control
[12]
  T/C: 89 % of control

## CCOC(=O)CC(O)(c1ccc2c(c1)OCO2)c1cc(OC)c(OC)c(OC)c1 (stereo not given)
[13]
  T/C: 100 % of control
[1]
  T/C: 94 % of control
[2]
  T/C: 94 % of control
[3]
  T/C: 89 % of control
[14]
  T/C: 88 % of control

## CCOC(=O)N(CCCl)N=O
dose: 0.31 mg/kg/injection, schedule: Q01DX009 (ip), vehicle: saline with Tween-80
  T/C: 114 % of control
dose: 0.62 mg/kg/injection, schedule: Q01DX009 (ip), vehicle: saline with Tween-80
  T/C: 118 % of control
dose: 2.5 mg/kg/injection, schedule: Q01DX009 (ip), vehicle: saline with Tween-80
  T/C: 96 % of control

## CC(C)(F)C(N)C(=O)O (stereo not given)
dose: 60.0 mg/kg/injection, schedule: Q01DX005 (ip), vehicle: saline
  T/C: 101 % of control
dose: 120.0 mg/kg/injection, schedule: Q01DX005 (ip), vehicle: saline
  T/C: 103 % of control
dose: 240.0 mg/kg/injection, schedule: Q01DX005 (ip), vehicle: saline
  T/C: 100 % of control

## O=C(NCCCl)Oc1ccc(Cl)cc1Cl
[13]
  T/C: 100 % of control
[1]
  T/C: 106 % of control
[2]
  T/C: 108 % of control and 113 % of control

## CC[C@@H](C)[C@H]([C@H](CC(=O)N1CCC[C@@H]1[C@@H](OC)[C@H](C)C(=O)N[C@H](Cc1ccccc1)c1nccs1)OC)N(C)C(=O)[C@H](NC(=O)[C@@H](C(C)C)N(C)C)C(C)C
dose: 6.5 micrograms/kg/injection, schedule: Q01DX005 (ip), vehicle: saline + alcohol
  T/C: 155 % of control
dose: 13.5 micrograms/kg/injection, schedule: Q01DX009 (ip), vehicle: saline + alcohol
  T/C: 173 % of control

## c1ccc2nc(N=Nc3cnc4ccccc4n3)cnc2c1
dose: 12.5 mg/kg/injection, schedule: Q01DX001 (ip), vehicle: saline with Tween-80
  T/C: 100 % of control and 93 % of control and 94 % of control
dose: 12.5 mg/kg/injection, schedule: Q01DX005 (ip), vehicle: saline with Tween-80
  T/C: 94 % of control
dose: 25.0 mg/kg/injection, schedule: Q01DX001 (ip), vehicle: saline with Tween-80
  T/C: 99 % of control and 94 % of control
[10]
  T/C: 94 % of control
dose: 50.0 mg/kg/injection, schedule: Q01DX001 (ip), vehicle: saline with Tween-80
  T/C: 100 % of control and 86 % of control and 97 % of control
[11]
  T/C: 97 % of control

## Fc1ccc(N2C(c3ccccc3)=N[C@@H](N3CCCCC3)[C@@H]2N2CCCCC2)cc1
[2]
  T/C: 102 % of control
[3]
  T/C: 99 % of control
[14]
  T/C: 100 % of control

## CCCCCCCC[N+](C)([O-])CCCCCC[N+](C)([O-])CCCCCCCC (stereo not given)
[15]
  T/C: 99 % of control
[8]
  T/C: 94 % of control

## COC(=O)C1=C(C)NC(C)=C(C(=O)OC)C1c1cc2ccccc2n2nnnc12
dose: 60.0 mg/kg/injection, schedule: Q01DX005 (ip), vehicle: saline with Tween-80
  T/C: 95 % of control
dose: 120.0 mg/kg/injection, schedule: Q01DX005 (ip), vehicle: saline with Tween-80
  T/C: 98 % of control
dose: 240.0 mg/kg/injection, schedule: Q01DX005 (ip), vehicle: saline with Tween-80
  T/C: 88 % of control

## CCN(CC)c1cc(C)c(Cc2c(OC)ccc3ccccc23)cc1C
[2]
  T/C: 92 % of control
[3]
  T/C: 92 % of control
[14]
  T/C: 99 % of control

## CNC(=O)OCc1c(COC(=O)NC)c2n(c1C)CS(=O)C2 (stereo not given)
[10]
  T/C: 113 % of control
[11]
  T/C: 113 % of control
[12]
  T/C: 121 % of control and 122 % of control
dose: 200.0 mg/kg/injection, schedule: Q01DX005 (ip), vehicle: saline with Tween-80
  T/C: 113 % of control and 115 % of control

## C[C@]12CCC(=O)C=C1CC[C@@H]1[C@@H]2[C@@H](O)C[C@@]2(C)[C@H]1CC[C@]2(O)C(=O)COC(=O)c1ccc([N+](=O)[O-])cc1Cl
[4]
  T/C: 109 % of control
[5]
  T/C: 100 % of control
[6]
  T/C: 109 % of control and 86 % of control
[7]
  T/C: 86 % of control

## CCOC(=O)N1CC2C=CC1C(C(C)=O)C2 (stereo not given)
[15]
  T/C: 110 % of control
[8]
  T/C: 109 % of control
[9]
  T/C: 109 % of control

## CCCN(CCC)CC(O)c1cc2cc(C(F)(F)F)cc(C(F)(F)F)c2c2cc(Cl)c(Cl)cc12 (stereo not given)
dose: 6.25 mg/kg/injection, schedule: Q01DX009 (ip), vehicle: saline with Tween-80
  T/C: 102 % of control
dose: 12.5 mg/kg/injection, schedule: Q01DX009 (ip), vehicle: saline with Tween-80
  T/C: 101 % of control
dose: 25.0 mg/kg/injection, schedule: Q01DX009 (ip), vehicle: saline with Tween-80
  T/C: 94 % of control
[5]
  T/C: 91 % of control
[6]
  T/C: 91 % of control

## CC1CCN(P(=O)(N(C)C)N(C)C)CC1
[15]
  T/C: 98 % of control
[8]
  T/C: 96 % of control
[9]
  T/C: 88 % of control

## CC(=O)/C=C/N1CCOCC1
[15]
  T/C: 119 % of control
[8]
  T/C: 98 % of control
[9]
  T/C: 103 % of control

— PubChem BioAssay AID330 (DTP/NCI, 2004)
